Patent publication US9669030B2, “Hydantoin derivatives as Kv3 inhibitors” (AUTIFONY THERAPEUTICS LIMITED, priority 2012, dated 2017)

Tested on: chinchilla model of acute noise-induced hearing loss
Assay: chinchilla model of acute noise-induced hearing loss, auditory brainstem response thresholds
Assay type: in vivo
Details: 60 mg/kg intraperitoneal, doses 12 hours apart, five pre- and five post-noise, 105 dB SPL noise centered at 4 kHz for 6 hours, 21 days after noise exposure, 2, 4, 6, 8 kHz, p<0.01
From the text: The otoprotective efficacy (i.e. the ability to prevent or reduce the development of permanent acute noise-induced hearing loss) of an exemplary Kv3 modulator, Example 64 described within WO2011069951A1 ((5R)-5-ethyl-5-methyl-3-[2-({4-methyl-3-[(trifluoromethyl)oxy]phenyl}oxy)-5-pyrimidinyl]-2,4-imidazolidinedione), referred to herein as “COMPOUND X”, was investigated using a chinchilla model of acute noise-induced hearing loss, as follows:
Subjects comprised male, 3 year old chinchillas (Laniger), 10 animals per group. Chinchillas were housed in the study facility for a minimum of 5 days prior to noise exposure. Food and water were available ad libitum. Animals were maintained at 21° C. on a 12/12 light/dark cycle. […]
Auditory brainstem responses (ABRs) were collected prior to noise exposure and 21 days after noise exposure. […] Thresholds were measured in response to tone-bursts with 1 ms rise/fall and a 0 ms plateau gated by a Blackman envelope and centred at the frequencies of 2, 4, 6 and 8 kHz, presented at 30/s. […]
The thresholds for ABRs at the four different sound frequencies at day 21 post-noise exposure were compared to the thresholds at baseline, prior to noise exposure in order to determine a threshold shift for each animal. The data were then analysed using a 2-way ANOVA, with treatment and frequency as main factors.

SMILES: CC[C@@]1(C)NC(=O)N(c2cnc(Oc3ccc(C)c(OC(F)(F)F)c3)nc2)C1=O [COMPOUND X, (5R)-5-ethyl-5-methyl-3-[2-({4-methyl-3-[(trifluoromethyl)oxy]phenyl}oxy)-5-pyrimidinyl]-2,4-imidazolidinedione]
- permanent threshold shift in ABRs: significantly reduced
